Measured values as given in patent US5498627A, “Octahydro-2-naphthalenecarboxylic acid derivative, its production and use” (Takeda Chemical Industries, Ltd., priority 1994, dated 1996).
In brackets after ≈: the same amount, converted by molar mass.

Legend:
NIH3T3/K-ras cells = test: Cell growth-inhibitory test (MTT); format: cell-based; conditions: Mus musculus, NIH3T3, 72 h, 3 days incubation, read-out: concentration inhibiting the growth of NIH3T3/K-ras cells by 50%
Procedure: The cell growth-inhibitory activity of the compound TAN-1813 was determined according to a modified method of Mosmann (Journal of Immunological Methods 65, 55 (1983) ) by using a K-ras transformant (NIH3T3/K-ras) of mouse embryonic fibroblast strain NIH3T3. That is, NIH3T3/K-ras cells were suspended in a medium at a cell density of 3×10^4 /ml. The suspension (0.1 ml per well) was dispensed into each well of a 96-well flat-bottomed plate (manufactured by Nunc) containing a solution (10 μl) of varying concentrations of the compound TAN-1813 dissolved in phosphate-buffered saline (PBS). The medium was Dulbecco modified Eagle's minimum essential medium (Whittaker Bioproducts, U.S.A.) containing 10 V/V % fetal calf serum (FCS, Whittaker Bioproducts, U.S.A.). The above plate was incubated for 3 days at 37° C. and 5% CO2. Then, 25 μl of tetrazolium salt MTT (Sigma, U.S.A.) solution (5 mg/ml) dissolved in PBS was added to each well. After incubation for 4 hours, 0.1 ml of 10% SDS solution dissolved in 0.01N hydrochloric acid was added to each well, and the plate was incubated overnight at 37° C. and 5% CO2. Absorbance at 620 nm was measured using Titertek Multiscan Spectrophotometer (Flow, U.S.A.). The growth inhibitory activity (%) was calculated from the absorbance values in the presence and absence of the compound TAN-1813.

Farnesyltransferase = target: T1, Farnesyltransferase (Rattus norvegicus, UniProt Q02293+Q04631); test: Farnesyltransferase-inhibitory test (FT Assay Kit, SPA); format: biochemical; conditions: crude enzyme from rat brains; biotin-modified human lamin B C-terminal peptide, 3H-farnesylpyrophosphate; 37° C., 1 hour; read-out: concentration inhibiting farnesyltransferase activity by 50% (converted)
T1 construct: Farnesyltransferase was prepared from rat brains; from tissue; host or cells: brain of male SD rats, 6 weeks old (Charles River); dialysed 30-50% ammonium sulfate fraction, crude enzyme solution
Procedure: Farnesyltransferase was prepared from rat brains according to the method of Y. Reiss et al. (Cell 62, 81 (1990)) and all of the following procedures were performed at 4° C. That is, brains were removed from SD rats (male, 6 weeks old, Charles River) and sliced with a pair of scissors. Then 50 mM tris-hydrochloric acid buffer (pH 7.5)(2 ml per brain) containing 1 mM EDTA, 1 mM EGTA, 0.2 mM phenylmethylsulfonyl fluoride and 0.1 mM leupeptin was added. The mixture was homogenized with a Teflon homogenizer (manufactured by Hamada Rika, Japan) in ice. The extract was centrifuged at 60,000×g for 70 minutes. From the resulting supernatant, the precipitate fraction from 30 to 50 W/V % concentration of ammonium sulfate was recovered, and dialyzed overnight against 20 mM tris-hydrochloric acid buffer (pH 7.5) containing 1 mM dithiothreitol and 20 μM zinc chloride. The dialysed solution was centrifuged at 15,000×g for 10 minutes. […]
Farnesyltransferase activity was determined using FT Assay Kit (manufactured by Amersham) as follows. […] The radioactivity produced by attachment of the ^3 H-farnesylated peptide to the SPA beads was measured with a scintillation counter to determine the amount of the ^3 H-farnesylated peptide. The farnesyltransferase-inhibitory activity of the compound TAN-1813 was calculated from the counts in the presence and absence of the compound TAN-1813.

[1] = test system: human fibrosarcoma strain HT-1080; test: In vivo tumor growth inhibitory test; conditions: 50 mg/kg subcutaneously daily for 4 days beginning 10 days after transplantation; tumor size 18 days after transplantation; HT-1080 in nude mice
Procedure: Cells of human fibrosarcoma strain HT-1080 (2×10^6 cells per mouse) were subcutaneously transplanted to nude mice. Three mice were used for each treated group. The compound TAN-1813 (50 mg/kg) was subcutaneously administered to the mice daily for 4 days beginning 10 days after the transplantation. Anti-tumor activity was evaluated by measuring tumor size 18 days after the transplantation of the cancer cells. Average tumor sizes of 3 mice in the untreated (C) and the compound TAN-1813-treated (T) group were measured, to determine the tumor growth inhibitory activity. The tumor size (mm^3) was calculated from the formula: 0.5×a×b^2 by measuring the major axis (mm) (a) and minor axis (mm) (b) with a calibrater.

Solubility = format: physicochemical

- IC50 (Farnesyltransferase): 26.2 µM
- Solubility (Solubility; in methanol, ethyl acetate, chloroform, and dimethyl sulfoxide): Readily soluble
- Solubility (Solubility; in water, and hexane): Slightly soluble
Compound: C=CC(CCCCC)C1=C(C(=O)C2C(C)C=CC3(O)CC(C(=O)O)CC(C)C23)C(=O)NC1=O (centres unmarked) [TAN-1813, 5-[2,5-dihydro-4-(1-octen-3-yl)-2,5-dioxo-1H-pyrrole-3-carbonyl]-8a-hydroxy-4,6-dimethyl-1,2,3,4,4a,5,6,8a-octahydro-2-naphthalenecarboxylic acid]
- IC50 (NIH3T3/K-ras cells): 0.4 mg/L (≈ 0.874 µM)
- tumor size ratio (T/C×100) [1]: 46%
